Experimental data: ChEMBL document CHEMBL4431396, “Novel Autotaxin Inhibitors for the Treatment of Osteoarthritis Pain: Lead Optimization via Structure-Based Drug Design” (ACS Med Chem Lett, 2016)

What was measured:
Format in all cases: ADME, organism-based
[1] = Half life in rat at 1 mg/kg, iv; conditions: in vivo
[2] = Volume of distribution at steady state in rat at 1 mg/kg, iv; conditions: in vivo, read-out: Vdss
[3] = Cmax in rat at 10 mg/kg, po administered as single dose; parameters: dose 10 mg/kg, route oral; conditions: in vivo
[4] = AUC in rat at 10 mg/kg, po administered as single dose; conditions: in vivo
[5] = Oral bioavailability in rat at 10 mg/kg administered as single dose; conditions: in vivo
Rattus norvegicus = test: Time duration for plasma concentration stays above in vitro IC80 level in rat at 10 mg/kg, po administered as single dose; conditions: in vivo

O=C(COCCc1cnn[nH]1)N1Cc2cnc(NC3Cc4ccccc4C3)nc2C1
half-life [1]: 1.14 h | Vd [2]: 1.4 L/kg | Cmax [3]: 660 nM | AUC [4]: 3.44 µM·h | bioavailability [5]: 23% | Time (Rattus norvegicus): > 12 h
